Our source for the melting point values is a melting point compilation (Tetko et al.; mined from patent text by program, amines drawn as free bases though some values may be those of a salt).

In turn, `CCCCNC(=O)OC1c2ccccc2C(=O)N1c1ccc2ccc(Cl)nc2n1` (stereo unspecified) returned a melting point of 152 °C.

For `CCCc1cc(=O)n2cccc(O)c2n1`, the melting point is 95 to 96 °C.

`CC1(C)CCCC2(C)C3CC=C(C=O)CC(=O)C3CCC12` (stereo unspecified) showed a melting point of 87 to 88 °C.

`COC(=O)c1sccc1NC(=O)OC(C)(C)C` displayed a melting point of 88 to 89 °C.

In turn, `CC(=O)NC1CCCCC1CCC(=O)O` (stereo unspecified) gave a melting point of 116 to 121 °C.

In the case of `Nc1nc(N)c(N=O)c(OCC2CCCCC2)n1`, the melting point turned out to be 254 °C.

`CC(C)Cc1cc([N+](=O)[O-])c2c(c1O)C(=O)c1c(O)c(CC(C)C)cc([N+](=O)[O-])c1C2=O` displayed a melting point of 198 to 200 °C.

With `COCOc1cc(C(=O)O)n(Cc2ccc(C(F)(F)F)cc2Cl)n1`, the melting point was in the range of 133 to 134 °C.

For `COC1(c2cc(F)cc(Sc3ccc(C(F)(F)c4ccc(F)cc4)cc3)c2)CCOCC1`, the melting point lay in the range of 54 to 57 °C.

With `NC(=O)NCC(C(=O)O)C(F)(F)F` (stereo unspecified), the melting point lay in the range of 149 to 150 °C.

As to `N#CC1(N2C(=O)c3cccc(Cl)c3C2=O)CCCCC1`, the melting point lay in the range of 115 to 116 °C.

As to `c1cc(OC2CCNCC2)c2cn[nH]c2c1`, the melting point is 162 to 165 °C.

For the molecule `CCCN(CCC)c1c(CC)nn2c(-c3cnc(N(C)C)cc3C)cccc12`, the melting point was in the range of 98.5 to 100 °C.

`COC(=S)c1ccc2ccc(C(=O)N(C)C)cc2c1`: the melting point lay in the range of 123 to 124 °C.

With `O=C(Nc1ccccc1)Nc1cccc(-c2ccc(CC3SC(=O)NC3=O)cc2)c1` (stereo unspecified), the melting point worked out at 185 °C.

For the molecule `Cc1nc(C2(C)CC2(Cl)Cl)nn1-c1c(Cl)cc(C(F)(F)F)cc1Cl` (stereo unspecified), the melting point was in the range of 107 to 116 °C.

With `CCOc1ccc2c(c1)n(C1CCCCC1)c(=O)n2S(=O)(=O)c1ccc(NC(=O)NC(C)(C)C)cc1OC`, the melting point is 237 °C.

For the molecule `CCCN(C(C)C)S(=O)(=O)NC(=O)c1cc(-n2c(=O)cc(C(F)(F)F)n(C)c2=S)c(F)cc1Cl`, the melting point lay within 74 to 75 °C.

`CC1(OC(=O)C#CC2C(C(=O)OC(C#N)c3cccc(Oc4ccccc4)c3)C2(C)C)CCC1` (stereo unspecified): the melting point is 76 °C.

Consider `O=C(C=CC=Cc1ccccc1)c1cccc([N+](=O)[O-])c1`, for which the melting point is 58 to 60 °C.

In the case of `O=C(O)CNC(=O)CCCCc1ccccc1`, the melting point was 93 to 96 °C.

Regarding `Cc1cccnc1-c1cccc(OC2SCC(O)C(O)C2O)c1` (stereo unspecified), the melting point fell in the range of 97 to 109 °C.

With `CC(=O)N1c2ccccc2Sc2c(O)c(O)c3ccccc3c21`, the melting point lay in the range of 258 to 260 °C.

For the molecule `CCCc1cc(F)c2oc(Cc3ccc(OC)cc3)c(C)c2c1OC(=O)OCC`, the melting point was in the range of 85 to 88 °C.

On to `CN(C)C1CCN(c2nc(NCc3ccccc3)c3ncnc(NCc4ccccc4)c3n2)CC1`, for which the melting point lay within 143 to 145 °C.

On to `COC(=O)COc1ccc(NC(=O)c2cc(F)cc(N3CCC(C)CC3)c2)c2ccccc12`, for which the melting point fell in the range of 50 to 51 °C.

Molecule `CCOCc1nc2c(N)nc3cccnc3c2n1CCCCS(=O)(=O)NC` showed a melting point of 148 to 150 °C.

In the case of `CC(C)(C)[S@](=O)N1CCC[C@@H]1c1ccc(Br)cc1`, the melting point was 100 to 112 °C.

In the case of `S=C(Nc1cccc(Cl)c1)N1CCCSC1c1ccc(Br)cc1` (stereo unspecified), the melting point lay in the range of 144 to 146 °C.

`COc1cccnc1CSCCNC(=C[N+](=O)[O-])SC`: the melting point is 87.5 to 88.5 °C.

Consider `O=C(O)[C@H](CC1CCCCC1)n1cccc1`, for which the melting point fell in the range of 78 to 80 °C.

As to `CON(C)C(=O)Nc1ccc(OCCc2ccc(C(C)(C)C)cc2)cc1`, the melting point lay within 14 to 15 °C.

For `CCOC(=O)C(C)(C)c1ccc(Br)c([N+](=O)[O-])c1`, the melting point lay in the range of 42 to 45 °C.

In the case of `O=C1COC(COc2ccccc2Cc2cccs2)CN1Cc1ccccc1` (stereo unspecified), the melting point was 97 to 99 °C.

Molecule `Cc1c(C(C)N(O)C(N)=O)sc2ccccc12` (stereo unspecified) yielded a melting point of 130 to 132 °C.

For `N=C1CC(=O)Oc2cc(OCC(O)COc3ccccc3)ccc21` (stereo unspecified), the melting point was in the range of 213 to 214 °C.

Usually melting point stands for the temperature of the solid-liquid transition.
